Measured values reported in patent publication US20070113300A1 (priority 2003, published 2007).

Target: ClpP Enzyme
Format: biochemical
Conditions: pH 8

`O=[N+]([O-])C(=C1Nc2ccccc2N1)C(Cl)=C(Cl)Cl` [(I)] and `Clc1nc2ccccc2nc1N1CC1` [(II)] are within 1.5-fold of each other in IC50: 23 µM for the first, 19 µM for the second.

For `COc1ccc(/C=C(\C#N)c2nnc(/N=C/N(C)C)s2)cc1` [(III)], the IC50 was 25 µM.
